These results are taken from ChEMBL document CHEMBL1127373 (J Med Chem, 1994).

As usually defined, the Ki is a dissociation constant, usually derived from enzyme kinetics or from competition with a known ligand. A higher Ki goes with lower affinity.

The target in this experiment is Neuronal acetylcholine receptor. The experiment in a line: Tested for the binding affinity against neuronal nicotinic acetylcholine receptors from whole rat brain.

`CC[C@H]1C[C@@H](c2cccnc2)N(C)C1` returned a Ki of 50.2 nM. Under `C[C@H]1CC[C@@H](c2cccnc2)N1C` stands 34.9 nM; under `CN1C[C@@H](CF)C[C@H]1c1cccnc1`, 11.1 nM. Under `CN1[C@H](c2ccccc2)CC[C@H]1c1cccnc1` stands 3350 nM. Under `CN1C[C@@H](O)C[C@H]1c1cccnc1` stands 27.6 nM.

In turn, `C[C@@H]1CC[C@@H](c2cccnc2)N1C` gave a Ki of 1210 nM. Under `CN1C[C@@H](CO)C[C@H]1c1cccnc1` stands 158 nM. For `CN1CCC(CF)[C@H]1c1cccnc1` (some centres not stated), the Ki was found to be 98.5 nM. Turning to `COCC1CCN(C)[C@@H]1c1cccnc1` (some centres not stated), the affinity corresponds to a Ki of 2030 nM. Under `CSC[C@H]1C[C@@H](c2cccnc2)N(C)C1` stands 493 nM. In turn, `CN1C[C@@H](OS(C)(=O)=O)C[C@H]1c1cccnc1` showed a Ki of 364 nM. In the case of `COC[C@H]1C[C@@H](c2cccnc2)N(C)C1`, the affinity corresponds to a Ki of 510 nM. Turning to `CN1C[C@H](C#N)C[C@H]1c1cccnc1`, the Ki came to 82 nM.

`CCCC[C@@H]1CC[C@@H](c2cccnc2)N1C` had a Ki of 1380 nM. With `CN1CCC(CO)[C@H]1c1cccnc1` (some centres not stated) the figure was 619 nM; with `CO[C@H]1C[C@@H](c2cccnc2)N(C)C1`, 36.6 nM. With `CN1C[C@@H](CC#N)C[C@H]1c1cccnc1` the figure was 52 nM; with `CC1CN(C)[C@H](c2cccnc2)C1C` (some centres not stated), 96.4 nM; with `CC(=O)O[C@H]1C[C@@H](c2cccnc2)N(C)C1`, 103 nM.

Take `CN1C[C@@H](Cc2ccccc2)C[C@H]1c1cccnc1`: the Ki came to 119 nM.

`CN1C[C@H](CO)C[C@H]1c1cccnc1` showed a Ki of 294 nM.

In turn, `CN1[C@@H](c2ccccc2)CC[C@H]1c1cccnc1` gave a Ki of 1240 nM.
